The first assay deals with 80S14 (p21-deficient) cells. Nature of the assay: Cytotoxicity assay using isogenic cell lines: IC50 in 80S14 (p21-deficient) cells, SRB. Conditions: 80S14 (p21-deficient) cells, 5 days, SRB; class symbols; read-out: IC50 for 80S14. The class given is cell-based, human. The procedure:
Cytotoxicity Assay Using Isogenic Cell Lines: • 1. 80S14 (p21-deficient) cells were cultured in RPMI 1640 medium (Gibco/Invitrogen Life technologies) supplemented with 10% fetal bovine serum (FBS, Gibco) and 10 μg/ml gentamycin (Gibco). Cells were maintained at 37° C. under 7% CO2 • 2. Cells were plated at 6×10^4/ml (0.2 ml/well; 12,000 cells/well) in 96-well microtiter plates (Falcon or Corning/Costar) and incubated at 37° C. overnight (18-24 hours). • 3. 2-5 μl of the test agent [200 μg/ml stock in 20% DMSO/20 mM HEPES, pH 7.5 (Gibco)] was added to each well to achieve a final concentration of 2-5 μg/ml. Cells were incubated with the test compounds for 5 days at 37° C. • 4. Surviving cells were fixed with 50 μl 50% trichloroacetic acid (Sigma; 10% final concentration) for 1 hour at 4° C. • 5. Plates were rinsed twice with water (0.3 ml per wash using MRD8 robot), and allowed to dry. • 6. Sulforhodamine B (SRB) (Sigma; 0.4% in 1% acetic acid, 50 μl per well; MRD8 robot) was added and plates kept at room temperature for 10 minutes. • 7. Excess dye was removed by washing with 1% acetic acid (3 times, 0.3 ml per wash; MRD8 robot) and allowed to dry. • 8. The dye was solubilized in Tris base (Sigma; 10 mM, 150 μl per well). Plates were kept at room temperature for 30 minutes to allow the dye to diffuse. • 9. Absorbance was measured at 540 nm. • 10. The percentage of cells surviving drug treatment relative to control wells (no drug) was determined. • 11. The difference in % cell survival between the two cell lines was calculated. • 12. Compounds producing a difference score of >50 were considered to be selective for the p21-deficient cells and were evaluated further: Determination of selectivity of compounds for p21−/− cells: • 1. 80S14 cells were cultured as described above. • 2. Cells were seeded in 96-well microtiter plates at 12,000 cells/well (either 0.15 ml/well of 8×10^4 cells/ml suspension, or 0.2 ml/well of 6×10^4 cells/ml suspension). Plates were incubated at 37° C. overnight (18-24 hours). • 3. Serial dilutions of the test agent were added to each well. Dilutions were prepared either in 40% DMSO/20% methanol/20 mM HEPES, pH 7.5 (Gibco) or directly in growth medium. One of two dose ranges were used: 5 pM to 50 μM or 170 pg/ml to 10 μg/ml. Cells were incubated with the test compounds for 5 days at 37° C. • 4. Surviving cells were fixed with 50 μl 50% trichloroacetic acid (Sigma; 10% final concentration) for 1 hour at 4° C. • 5. Plates were rinsed extensively in water, and allowed to dry. • 6. Sulforhodamine B (Sigma; 0.4% in 1% acetic acid, 70 μl per well) was added and plates kept at room temperature for 10 minutes. • 7. Excess dye was removed by washing 5 times with 1% acetic acid and plates were allowed to dry. • 8. The dye was solubilized in Tris base (Sigma; 10 mM, 150 μl per well). Plates were placed on a titer plate shaker (Lab Line Instruments) for 5 minutes to allow the dye to diffuse. • 9. Absorbance was measured at 560 nm.
10. The drug concentration that inhibits cell proliferation by 50% relative to untreated controls (IC50) was determined from cytotoxicity curves.
With `CCOC(=O)c1cnn2c(-c3cccc(NC(=O)C4CCC4)c3)ccnc12` [Example 240, Ethyl 7-[3-[(cyclobutylcarbonyl)amino]phenyl]-pyrazolo[1,5-a]pyrimidine-3-carboxylic acid], the IC50 lay in the range of 10 to 50 µM.
Regarding `Cc1cc(-c2cccc(NC(=O)C3CO3)c2)n2ncc(C(=O)c3cccs3)c2n1` (stereo not shown) [Example 278, {3-[5-Methyl-3-(2-thienylcarbonyl)pyrazolo[1,5-a]pyrimidin-7-yl]phenyl}-2-oxiranecarboxamide], the IC50 is less than 1 µM.

The assay is the same for the next values; noted with them: 80S14 p21-deficient cells, 5 days incubation, SRB; read-out: IC50 for 80SI4.
As for `CC(C)C[C@H](N)C(=O)Nc1cccc(-c2ccnc3c(C(=O)c4cccs4)cnn23)c1` [Example 80, N-1-{3-[3-(thien-2-ylcarbonyl)pyrazolo[1,5-a]pyrimidin-7-yl]phenyl}-L-leucinamide], the IC50 was 1 to 10 µM.
With `CC(C)(C)C(=O)NCC(=O)Nc1cccc(-c2ccnc3c(C(=O)c4cccs4)cnn23)c1` [Example 132], the concentration for half-maximal inhibition (IC50) was 1 to 10 µM.
Same read-out and setting: as for `O=C(Nc1cccc(-c2ccnc3c(C(=O)c4cccs4)cnn23)c1)c1ccc(Cl)cc1` [Example 89], the figure is 1 to 10 µM; as for `CC(C)C[C@H](N)C(=O)Nc1cccc(-c2ccnc3c(C(=O)c4cccs4)cnn23)c1` [Example 79, N-1-{3-[3-(thien-2-ylcarbonyl)pyrazolo[1,5-a]pyrimidin-7-yl]phenyl}-L-leucinamide], 10 to 50 µM.
Same read-out and setting: as for `O=C(CNC(=O)C12CC3CC(CC(C3)C1)C2)Nc1cccc(-c2ccnc3c(C(=O)c4cccs4)cnn23)c1` [Example 134, N-[2-oxo-2-({3-[3-(thien-2-ylcarbonyl)pyrazolo[1,5-a]pyrimidin-7-yl]phenyl}amino)ethyl]adamantine-1-carboxamide], the figure is 1 to 10 µM.
The same measure, in the same setting: as for `O=C(Nc1cccc(-c2ccnc3c(C(=O)c4cccs4)cnn23)c1)OCC(Cl)(Cl)Cl` [Example 18, 2,2,2-trichlroethyl 3-[3-(thien-2-ylcarbonyl)pyrazolo[1,5-a]pyrimidin-7-yl]phenylcarbamate], the figure is less than 1 µM.

The same assay, now with this note: Homo sapiens, 80S14, 120 h, read-out: IC50 for 80S14 (uM).
With `CC(=O)N(C)c1cccc(-c2ccnc3c(C(=O)c4cccs4)cnn23)c1` [Example 238, N-Methyl-N-[3-[3-(2-thienylcarbonyl)-pyrazolo[1,5-a]pyrimidin-7-yl]phenyl}-acetamide], the IC50 was 10 to 50 µM.
Still for that read-out and setting: as for `CC(C)OC(=O)Nc1cccc(-c2ccnc3c(C(=O)c4ccoc4)cnn23)c1` [Example 305, Isopropyl 3-[3-(3-furoyl)pyrazolo[1,5-a]pyrimidin-7-yl]phenylcarbamate], the figure is 1 to 10 µM.

The assay is the same for the next values; noted with them: Homo sapiens, 120 h; 80S14 (p21-deficient) cells, 5 days, SRB; class symbols; read-out: IC50 for 80S14.
With `CC(C)COC(=O)Nc1cccc(-c2ccnc3c(Br)cnn23)c1` [Example 327, Isobutyl 3-(3-bromopyrazolo[1,5-a]pyrimidin-7-yl)phenylcarbamate], the IC50 is 10 to 50 µM.
Same read-out and setting: as for `CCN(C(=O)C1CC1)c1cccc(-c2ccnc3c(C(=O)c4ccccc4)cnn23)c1` [Example 253, N-[3-(3-Benzoylpyrazolo[1,5-a]pyrimidin-7-yl)phenyl]-N-ethyl-cyclopropanecarboxamide], the figure is 10 to 50 µM; as for `CCCCC/C(=C\c1ccccc1)CNc1cccc(-c2ccnc3c(C(=O)c4cccs4)cnn23)c1` [Example 410, [7-(3-{[(2E)-2-Pentyl-3-phenylprop-2-enyl]amino}phenyl)pyrazolo[1,5-a]pyrimidin-3-yl](thien-2-yl)methanone], 10 to 50 µM.
On the same count and under the same terms, as for `CC(C)CC(=O)Nc1cccc(-c2ccnc3c(-c4cccc(CN(C)C)c4)cnn23)c1` [Example 497, N-[3-(3-{3-[(Dimethylamino)methyl]phenyl}pyrazolo[1,5-a]pyrimidin-7-yl)phenyl]-3-methylbutanamide], the figure is 10 to 50 µM.
Same read-out and setting: to `O=C(c1cccs1)c1cnn2c(-c3cccc(NC(=O)C4CCNCC4)c3)ccnc12` [Example 408, N-{3-[3-(Thien-2-ylcarbonyl)pyrazolo[1,5-a]pyrimidin-7-yl]phenyl}piperidine-4-carboxamide] belongs 1 to 10 µM.
For the compound `O=C(c1cccs1)c1cnn2c(-c3cccc(NC(=O)C4CO4)c3)ccnc12` (stereo not shown) [Example 277, N-{3-[3-(2-Thienylcarbonyl)pyrazolo[1,5-a]pyrimidin-7-yl]phenyl}-2-oxiranecarboxamide], the half-inhibitory concentration (IC50) is less than 1 µM.
Consider `O=C(c1cccs1)c1cnn2c(-c3cccc(-c4ccc(CN5CCOCC5)cc4)c3)ccnc12` [Example 459, {7-[4′-(Morpholin-4-ylmethyl)-1,1′-biphenyl-3-yl]pyrazolo[1,5-a]pyrimidin-3-yl}(thien-2-yl)methanone], for which the IC50 is less than 1 µM.
For the compound `O=C(Nc1cccc(-c2ccnc3c(C(=O)c4cccs4)cnn23)c1)c1cccc(Br)c1` [Example 286, 3-Bromo-N-{3-[3-(2-thienylcarbonyl)pyrazolo[1,5-a]pyrimidin-7-yl]phenyl}benzamide], the IC50 is less than 1 µM.
On the same count and under the same terms, to `C=CC(=O)Nc1cccc(-c2ccnc3c(C(=O)c4cccs4)cnn23)c1` [Example 272, N-{3-[3-(2-Thienylcarbonyl)pyrazolo[1,5-a]pyrimidin-7-yl]phenyl}acrylamide] belongs less than 1 µM.
On to `O=C(c1cccs1)c1cnn2c(-c3cccc(C(F)(F)F)c3)ccnc12` [Example 223, [7-(3-Trifluoromethylphenyl)pyrazolo[1,5-a]-pyrimidin-3-yl}-2-thienyl-methanone], for which the IC50 was 1 to 10 µM.

The assay is the same for the next values; noted with them: Homo sapiens, 120 h; 80S14 p21-deficient cells, 5 days incubation, SRB; read-out: IC50 for 80SI4.
For the compound `Cc1cnc2c(C(=O)c3cccs3)cnn2c1-c1cccc(NC(=O)NC(C)C)c1` [Example 222, N-isopropyl-N′-{3-[6-methyl-3-(thien-2-ylcarbonyl)pyrazolo[1,5-a]pyrimidin-7-yl]phenyl}urea], the IC50 is 10 to 50 µM.
Take `CCOC(=O)NCC(=O)Nc1cccc(-c2ccnc3c(C(=O)c4cccs4)cnn23)c1` [Example 113, ethyl 2-oxo-2-({3-[3-(thien-2-ylcarbonyl)pyrazolo[1,5-a]pyrimidin-7-yl]phenyl}amino)ethylcarbamate]: the IC50 was 1 to 10 µM.
The same measure, in the same setting: as for `O=C(CNC(=O)OCc1ccccc1)Nc1cccc(-c2ccnc3c(C(=O)c4cccs4)cnn23)c1` [Example 125, benzyl 2-oxo-2-({3-[3-(thien-2-ylcarbonyl)pyrazolo[1,5-a]pyrimidin-7-yl]phenyl}amino)ethylcarbamate], the figure is 1 to 10 µM.
On the same count and under the same terms, as for `CN1CCCN(C(=O)Nc2cccc(-c3ccnc4c(C(=O)c5cccs5)cnn34)c2)CC1` [Example 167, 4-methyl-N-{3-[3-(thien-2-ylcarbonyl)pyrazolo[1,5-a]pyrimidin-7-yl]phenyl}-1,4-diazepane-1-carboxamide], the figure is 1 to 10 µM; as for `C=CCCOC(=O)Nc1cccc(-c2c(C)cnc3c(C(=O)c4cccs4)cnn23)c1` [Example 213, but-3-enyl 3-[6-methyl-3-(thien-2-ylcarbonyl)pyrazolo[1,5-a]pyrimidin-7-yl]phenylcarbamate], 10 to 50 µM; as for `C=CCOC(=O)NCC(=O)Nc1cccc(-c2ccnc3c(C(=O)c4cccs4)cnn23)c1` [Example 124, allyl 2-oxo-2-({3-[3-(thien-2-ylcarbonyl)pyrazolo[1,5-a)pyrimidin-7-yl]phenyl}amino)ethylcarbamate], 10 to 50 µM.
Turning to `COc1cccc(OC)c1C(=O)Nc1cccc(-c2ccnc3c(C(=O)c4cccs4)cnn23)c1` [Example 101, 2,6-dimethoxy-N-{3-[3-(thien-2-ylcarbonyl)pyrazolo[1,5-a]pyrimidin-7-yl]phenyl}benzamide], the IC50 was less than 1 µM.
Consider `COc1cccc(C(=O)Nc2cccc(-c3ccnc4c(C(=O)c5cccs5)cnn34)c2)c1` [Example 97, 3-methoxy-N-{3-[3-(thien-2-ylcarbonyl)pyrazolo[1,5-a]pyrimidin-7-yl]phenyl}benzamide], for which the IC50 is less than 1 µM.

The values are drawn from US20060063784A1, “Method of using substituted pyrazolo [1,5-a] pyrimidines” (priority 2004, published 2006).
